This passage reports IC50 results from US20090054428A1, “NOVEL PYRIMIDINE DERIVATIVES 965” (ASTRAZENECA AB, priority 2007, published 2009).

The target in experiment [1] is T1, recombinant EphB4 (Homo sapiens, UniProt P54760).
T1 sequence (P54760 563-987): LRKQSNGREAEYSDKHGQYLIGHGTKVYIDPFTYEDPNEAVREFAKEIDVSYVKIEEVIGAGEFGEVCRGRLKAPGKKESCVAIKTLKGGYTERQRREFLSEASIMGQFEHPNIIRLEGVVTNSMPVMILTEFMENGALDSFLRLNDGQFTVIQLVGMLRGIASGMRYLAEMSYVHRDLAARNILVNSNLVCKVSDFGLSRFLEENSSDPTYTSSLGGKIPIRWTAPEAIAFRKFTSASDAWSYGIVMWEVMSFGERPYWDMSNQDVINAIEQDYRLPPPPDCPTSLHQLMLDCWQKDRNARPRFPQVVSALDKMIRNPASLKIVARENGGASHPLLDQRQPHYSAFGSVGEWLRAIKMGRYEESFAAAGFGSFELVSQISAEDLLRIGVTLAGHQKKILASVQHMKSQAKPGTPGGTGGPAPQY
Nature of the experiment: biochemical.
Text: (§1) This assay detects inhibitors of EphB4-mediated phosphorylation of a polypeptide substrate using Alphascreen™ luminescence detection technology. […] The reaction was stopped by addition of EDTA, together with streptavidin-coated donor beads which bind the biotin-substrate containing any phosphorylated tyrosine residues. Anti-phosphotyrosine antibodies present on acceptor beads bind to phosphorylated substrate, thus bringing the donor & acceptor beads into close proximity. Subsequent excitation of the donor beads at 680 nm generated singlet oxygen species that interact with a chemiluminescer on the acceptor beads, leading to light emission at 520-620 nm. The signal intensity is directly proportional to the level of substrate phosphorylation and thus inhibition is measured by a decrease in signal.
(§2) To ensure that each well contained a total of 120 nl DMSO the wells were all backfilled as required. […] The test range of compounds was 100× the required final concentration.
(§3) Assay plates were then incubated at room temperature for 1 hour.
(§4) For assays using compounds prepared via acoustic dispensing, the assay mix was adjusted such that the final assay volume of 12 ul contained the same concentration of reagent as 10 ul of assay mix used when aqueous compounds were tested.
(§5) The plates were sealed under natural lighting conditions, wrapped in aluminium foil and incubated in the dark for a further 20 hours.
(§6) The resulting assay signal was determined on the Perkin Elmer EnVision plate reader. The minimum value was subtracted from all values, and the signal plotted against compound concentration to generate IC50 data. The method used to generate the compound dilutions was recorded with the IC50 value in the database.

In experiment [2] the target is T2, EphB4 (Homo sapiens, UniProt P54760).
T2 construct: to generate full-length EphB4 containing a Myc-His tag at the C-terminus; expressed in transfected cells
T2 sequence (P54760 16-987): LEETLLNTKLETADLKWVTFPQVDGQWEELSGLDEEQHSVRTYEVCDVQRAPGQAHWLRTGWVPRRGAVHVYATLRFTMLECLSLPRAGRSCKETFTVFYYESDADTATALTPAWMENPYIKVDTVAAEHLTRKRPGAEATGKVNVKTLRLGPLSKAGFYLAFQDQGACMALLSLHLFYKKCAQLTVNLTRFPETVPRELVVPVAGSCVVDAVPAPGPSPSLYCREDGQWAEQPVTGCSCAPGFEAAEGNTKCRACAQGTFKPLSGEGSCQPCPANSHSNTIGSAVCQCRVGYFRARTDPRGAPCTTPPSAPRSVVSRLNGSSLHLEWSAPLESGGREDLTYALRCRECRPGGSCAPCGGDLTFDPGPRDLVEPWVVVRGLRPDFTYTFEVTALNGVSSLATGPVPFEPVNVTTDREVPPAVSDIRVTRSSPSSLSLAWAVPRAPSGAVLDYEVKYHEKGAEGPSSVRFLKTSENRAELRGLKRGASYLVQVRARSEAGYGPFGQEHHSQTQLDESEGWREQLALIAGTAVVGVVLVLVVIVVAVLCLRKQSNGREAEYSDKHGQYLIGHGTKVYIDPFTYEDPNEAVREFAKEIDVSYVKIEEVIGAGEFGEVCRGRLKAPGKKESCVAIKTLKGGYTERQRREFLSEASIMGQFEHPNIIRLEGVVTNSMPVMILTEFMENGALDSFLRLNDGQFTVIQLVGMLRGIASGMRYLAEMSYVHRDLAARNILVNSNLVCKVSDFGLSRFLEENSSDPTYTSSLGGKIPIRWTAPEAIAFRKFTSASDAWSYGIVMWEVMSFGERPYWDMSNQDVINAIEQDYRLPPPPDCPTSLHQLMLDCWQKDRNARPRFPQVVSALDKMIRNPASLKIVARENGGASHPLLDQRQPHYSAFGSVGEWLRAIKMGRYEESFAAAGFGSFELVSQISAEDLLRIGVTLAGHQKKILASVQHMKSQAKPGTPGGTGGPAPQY
Kind of experiment: In vitro EphB4 cell assay (EphB4 phosphorylation ELISA in EphB4-CHO cells). The format is cell-based. On the procedure:
The assay identifies inhibitors of cellular EphB4 by measuring a decrease in phosphorylation of EphB4 following treatment of cells with compound. The endpoint assay used a sandwich ELISA to detect EphB4 phosphorylation status. Briefly, Myc-tagged EphB4 from treated cell lysate was captured on the ELISA plate via an anti-c-Myc antibody. The phosphorylation status of captured EphB4 was then measured using a generic phosphotyrosine antibody conjugated to HRP via a colourimetric output catalysed by HRP, with level of EphB4 phosphorylation directly proportional to the colour intensity. Absorbance was measured spectrophotometrically at 450 nm.
Full length human EphB4 (Swiss-Prot Acc. No. P54760) was cloned using standard techniques from cDNA prepared from HUVEC using RT-PCR. The cDNA fragment was then sub-cloned into a pcDNA3.1 expression vector containing a Myc-His epitope tag to generate full-length EphB4 containing a Myc-His tag at the C-terminus (Invitrogen Ltd. Paisley, UK). […] CHO-K1 cells were engineered to stably express the EphB4-Myc-His construct using standard stable transfection techniques, to generate cells hereafter termed EphB4-CHO. […]
Plates were washed twice with PBS/0.05% Tween-20 and incubated with 100 μl/well cell lysate overnight at 4° C. […] The absorbances were determined at 450 nm using the Tecan SpectraFluor Plus. […]

In experiment [3] the target is T1, recombinant EphB4. Particulars: read-out: EphB4 enzyme assay Mean IC50 value; Method of compound preparation: Genesis (aqueous compound preparation); * = tested once only.
Text: as §1, §2, §3, §4, §5, §6
Setting [4] is: EphB4 enzyme assay Mean IC50 value, Method of compound preparation: Echo (acoustic dispensing), * = tested once only.
The mark [5] stands for this setting: EphB4 enzyme assay Mean IC50 value, Method of compound preparation: Genesis (aqueous compound preparation), * = tested once only.

A word on the IC50: it is the concentration that inhibits the measured activity by half.

Where two headings read alike, the source gives them in different places.

In the case of `Cc1ccc(CO)nc1N(C)c1ccnc(Nc2cc(N3CCOCC3)cc(N3CCOCC3)c2)n1` [Example 10, (6-((2-(3,5-dimorpholinophenylamino)pyrimidin-4-yl)(methyl)amino)-5-methylpyridin-2-yl)methanol], the IC50 in experiment [1] (setting [4]) is 141 nM.
As for `COc1cnc(C)c(N(C)c2ccnc(Nc3cc(N4CCOCC4)cc(N4CCOCC4)c3)n2)c1` [Example 7d, N-(3,5-dimorpholin-4-ylphenyl)-N′-(5-methoxy-2-methyl-pyridin-3-yl)-N′-methyl-pyrimidine-2,4-diamine], in experiment [1] (setting [4]), the IC50 was 4.37 nM.
Consider `CN(c1cc(Cl)ccn1)c1ccnc(Nc2cc(N3CCOCC3)cc(N3CCOCC3)c2)n1` [Example 2a, N′-(4-chloropyridin-2-yl)-N-(3,5-dimorpholin-4-ylphenyl)-N′-methyl-pyrimidine-2,4-diamine], for which the IC50 in experiment [2] amounted to 197 nM; in experiment [1] (IC50 in assay A, method of compound preparation not stated) it was 405 nM.
Take `Cc1cccc(N(C)c2ccnc(Nc3cc(N4CCOCC4)cc(N4CCOCC4)c3)n2)n1` [Example 11, N-[3,5-di(morpholin-4-yl)phenyl]-N′-methyl-N′-(6-methylpyridin-2-yl)pyrimidine-2,4-diamine]: the results for the IC50 in experiment [1] (setting [4]) and in experiment [1] (setting [5]) were 207 nM and more than 14400 nM, respectively.
Regarding `Cc1ncc(CO)cc1N(C)c1ccnc(Nc2cc(N3CCOCC3)cc(N3CCOCC3)c2)n1` [Example 13, [5-[[2-[[3,5-di(morpholin-4-yl)phenyl]amino]pyrimidin-4-yl]-methylamino]-6-methylpyridin-3-yl]methanol], the IC50 in experiment [1] (setting [4]) amounted to 66.9 nM.
Turning to `CN(c1ccc(Cl)nc1)c1ccnc(Nc2cc(N3CCOCC3)cc(N3CCOCC3)c2)n1` [Example 6, N4-(6-chloropyridin-3-yl)-N2-(3,5-dimorpholinophenyl)-N4-methylpyrimidine-2,4-diamine], in experiment [1] (setting [5]), the IC50 came to 201 nM.
With “N′-(4-chloropyridin-4-yl)-N-(3,5-dimorpholin-4-ylphenyl)-N′-methyl-pyrimidine-2,4-diamine [Example 2b]”, the IC50 in experiment [3] came to 207 nM.
Consider `Cc1ccc(N(C)c2ccnc(Nc3cc(N4CCOCC4)cc(N4CCOCC4)c3)n2)nc1` [Example 12, N-[3,5-di(morpholin-4-yl)phenyl]-N′-methyl-N′-(5-methylpyridin-2-yl)pyrimidine-2,4-diamine], for which the IC50 in experiment [1] (setting [4]) turned out to be 158 nM; in experiment [1] (setting [5]) it was 250 nM.
Take `CN(c1cncc(Cl)c1)c1ccnc(Nc2cc(N3CCOCC3)cc(N3CCOCC3)c2)n1` [Example 3, N′-(5-chloropyridin-3-yl)-N-(3,5-dimorpholin-4-ylphenyl)-N′-methyl-pyrimidine-2,4-diamine]: the figures for the IC50 in experiment [1] (setting [4]) and in experiment [1] (setting [5]) were 11.6 nM and 49 nM, respectively.
For the molecule `COc1cnc(Cl)c(N(C)c2ccnc(Nc3cc(N4CCOCC4)cc(N4CCOCC4)c3)n2)c1` [Example 9, N′-(2-chloro-5-methoxy-pyridin-3-yl)-N-(3,5-dimorpholin-4-ylphenyl)-N′-methyl-pyrimidine-2,4-diamine], the IC50 in experiment [1] (setting [4]) came to 10.7 nM.
As for `COc1cc(N(C)c2ccnc(Nc3cc(N4CCOCC4)cc(N4CCOCC4)c3)n2)cnc1Cl` [Example 8a, N′-(6-chloro-5-methoxy-pyridin-3-yl)-N-(3,5-dimorpholin-4-ylphenyl)-N′-methyl-pyrimidine-2,4-diamine], the IC50 in experiment [1] (setting [5]) was found to be 106 nM.
Take `Cc1ccc(N(C)c2ccnc(Nc3cc(N4CCOCC4)cc(N4CCOCC4)c3)n2)cn1` [Example 7a, N-(3,5-dimorpholin-4-ylphenyl)-N′-methyl-N′-(6-methylpyridin-yl)pyrimidine-2,4-diamine]: the IC50 in experiment [1] (setting [5]) turned out to be 116 nM.
Same read-out and setting: in the case of `Cc1cnc(C)c(N(C)c2ccnc(Nc3cc(N4CCOCC4)cc(N4CCOCC4)c3)n2)c1` [Example 7c, N′-(2,5-dimethylpyridin-3-yl)-N-(3,5-dimorpholin-4-ylphenyl)-N′-methyl-pyrimidine-2,4-diamine] it was 384 nM; in that of `Cc1cc(N(C)c2ccnc(Nc3cc(N4CCOCC4)cc(N4CCOCC4)c3)n2)cnc1Cl` [Example 8b, N′-(6-chloro-5-methyl-pyridin-3-yl)-N-(3,5-dimorpholin-4-ylphenyl)-N′-methyl-pyrimidine-2,4-diamine], 166 nM.
Consider `CN(c1cccc(Cl)n1)c1ccnc(Nc2cc(N3CCOCC3)cc(N3CCOCC3)c2)n1` [Example 4, N′-(6-chloropyridin-2-yl)-N-(3,5-dimorpholin-4-ylphenyl)-N′-methyl-pyrimidine-2,4-diamine], for which, in experiment [1] (setting [5]), the IC50 amounted to 611 nM.
